The text below walks through data of paper PMC10691846 (Protein & Cell, 2023).

Assay [1] concerns the target T1, MsCydDC (Mycolicibacterium smegmatis, UniProt A0QXA6+A4ZHS8).
T1 construct: gene MSMEG3240; purified CydC-CydD heterodimer
Briefly: ATPase activity assay. It is filed as biochemical. The conditions noted are these: Arg326 of CydC Linking-beta2 Loop sandwiches the adenosine ring at the CydC NBD.

Assay [2] concerns the target T1, MsCydDC. Briefly: ATPase activity assay. It is filed as biochemical. The conditions noted are these: Arg85 of CydD ICL1 stabilizes the adenosine ring at the CydD NBD.
In assay [3] the target is T1, MsCydDC. As to the kind of experiment: ATPase activity assay. Format: biochemical. To be noted: Arg324 of CydC Linking-beta2 Loop sandwiches the adenosine ring at the CydC NBD.
For assay [4], the target named is T1, MsCydDC. As to the kind of experiment: cryo-EM structure of the complex. Format: binding. The conditions noted are these: Mg2+; ATP in the NBDs of CydC and CydD; outward-facing state.
The target of assay [5] is T2, EcCydDC (Escherichia coli, UniProt P23886+P29018).
T2 construct: gene cydC; purified CydC-CydD heterodimer
Briefly: cryo-EM structure of the complex. To be noted: ATP-bound occluded state. Format: binding.

Assay [6] deals with T3, Escherichia coli CydD (Escherichia coli, UniProt P29018 1-588).
T3 construct: CydD, subunit of the ABC transporter CydDC of Escherichia coli; also called EcCydD; source: purified as the EcCydDC complex
T3 sequence: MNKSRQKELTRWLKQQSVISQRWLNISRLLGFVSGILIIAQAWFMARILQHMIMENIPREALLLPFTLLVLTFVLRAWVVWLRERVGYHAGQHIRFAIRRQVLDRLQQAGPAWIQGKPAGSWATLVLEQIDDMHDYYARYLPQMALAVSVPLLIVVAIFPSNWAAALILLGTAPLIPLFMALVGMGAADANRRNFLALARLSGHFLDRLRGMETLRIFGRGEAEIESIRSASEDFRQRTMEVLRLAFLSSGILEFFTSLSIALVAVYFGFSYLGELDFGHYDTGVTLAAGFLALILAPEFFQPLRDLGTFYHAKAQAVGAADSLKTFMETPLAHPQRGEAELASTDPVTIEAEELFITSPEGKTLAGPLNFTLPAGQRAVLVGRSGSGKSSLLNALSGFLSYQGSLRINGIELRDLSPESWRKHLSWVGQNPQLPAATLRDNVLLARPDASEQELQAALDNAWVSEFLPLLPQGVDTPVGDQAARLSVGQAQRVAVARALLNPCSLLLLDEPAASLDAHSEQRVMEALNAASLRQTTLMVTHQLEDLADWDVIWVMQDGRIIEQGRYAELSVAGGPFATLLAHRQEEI
Briefly: cryo-EM structure; purified CydDC complexes; MsCydDC in apo and ATP-bound states, EcCydDC in heme-loading and ATP-bound states. To be noted: both partners purified.

T1 sequence (A0QXA6 entry or part of it): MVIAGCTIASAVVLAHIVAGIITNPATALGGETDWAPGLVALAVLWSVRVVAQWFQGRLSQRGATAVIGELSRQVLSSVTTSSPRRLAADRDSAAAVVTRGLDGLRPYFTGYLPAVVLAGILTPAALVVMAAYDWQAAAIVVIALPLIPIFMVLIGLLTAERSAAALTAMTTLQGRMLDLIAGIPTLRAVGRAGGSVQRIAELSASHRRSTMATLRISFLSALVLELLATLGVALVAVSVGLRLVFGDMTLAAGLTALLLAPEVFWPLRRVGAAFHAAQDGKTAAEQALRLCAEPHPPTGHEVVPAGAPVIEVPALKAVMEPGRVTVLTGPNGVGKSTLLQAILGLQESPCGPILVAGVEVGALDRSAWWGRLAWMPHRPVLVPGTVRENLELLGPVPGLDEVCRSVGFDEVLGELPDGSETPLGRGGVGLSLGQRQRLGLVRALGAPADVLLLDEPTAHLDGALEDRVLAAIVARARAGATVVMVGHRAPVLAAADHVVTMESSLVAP
T1 sequence (A4ZHS8 entry or part of it): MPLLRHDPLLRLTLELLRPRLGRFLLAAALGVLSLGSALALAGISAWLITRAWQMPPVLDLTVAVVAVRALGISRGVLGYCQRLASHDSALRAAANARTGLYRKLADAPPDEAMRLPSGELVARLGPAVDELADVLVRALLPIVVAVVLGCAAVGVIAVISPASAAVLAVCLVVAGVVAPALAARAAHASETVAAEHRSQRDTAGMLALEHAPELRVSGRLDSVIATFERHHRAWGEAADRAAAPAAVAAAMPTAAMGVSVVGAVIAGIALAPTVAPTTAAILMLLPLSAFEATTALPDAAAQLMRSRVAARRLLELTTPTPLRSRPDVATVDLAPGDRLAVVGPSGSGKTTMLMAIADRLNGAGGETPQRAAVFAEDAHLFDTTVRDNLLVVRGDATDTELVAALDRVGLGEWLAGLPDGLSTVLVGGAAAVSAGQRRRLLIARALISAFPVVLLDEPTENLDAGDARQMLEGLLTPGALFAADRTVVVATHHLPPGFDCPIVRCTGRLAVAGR

Turning to `Nc1ncnc2c1ncn2[C@@H]1O[C@H](COP(=O)(O)OP(=O)(O)OP(=O)(O)O)[C@@H](O)[C@H]1O` [ATP], the ATPase activity result in assay [1], in assay [2] and in assay [3] was “a single mutation of any of these Arg residues significantly affected the ATPase activity” each time. The “cryo-EM structure of the complex” value is recorded as “the adenosine ring of ATP is stabilized by the sidechain of Arg85 from ICL1” in assay [4] and “We then determined the Cryo-EM structures of CydDC from Msm or E. coli” in assay [5].

B1: Escherichia coli CydC (natural protein)
chain: MRALLPYLALYKRHKWMLSLGIVLAIVTLLASIGLLTLSGWFLSASAVAGVAGLYSFNYMLPAAGVRGAAITRTAGRYFERLVSHDATFRVLQHLRIYTFSKLLPLSPAGLARYRQGELLNRVVADVDTLDHLYLRVISPLVGAFVVIMVVTIGLSFLDFTLAFTLGGIMLLTLFLMPPLFYRAGKSTGQNLTHLRGQYRQQLTAWLQGQAELTIFGASDRYRTQLENTEIQWLEAQRRQSELTALSQAIMLLIGALAVILMLWMASGGVGGNAQPGALIALFVFCALAAFEALAPVTGAFQHLGQVIASAVRISDLTDQKPEVTFPDTQTRVADRVSLTLRDVQFTYPEQSQQALKGISLQVNAGEHIAILGRTGCGKSTLLQQLTRAWDPQQGEILLNDSPIASLNEAALRQTISVVPQRVHLFSATLRDNLLLASPGSSDEALSEILRRVGLEKLLEDAGLNSWLGEGGRQLSGGELRRLAIARALLHDAPLVLLDEPTEGLDATTESQILELLAEMMREKTVLMVTHRLRGLSRFQQIIVMDNGQIIEQGTHAELLARQGRYYQFKQGL
notes: CydC, subunit of the ABC transporter CydDC of Escherichia coli; also called EcCydC; source: purified as the EcCydDC complex
As to B1, in assay [6], the binding result is recorded as “binds”.
